Measured values taken from patent publication US6900223B2, “Dihydrodipyrazolopyridinone inhibitors of B7-1” (Wyeth, priority 2002, dated 2005).

Target: T1, B7-1/CD28 binding (Homo sapiens, UniProt P33681)
T1 sequence (P33681 35-242 limits assumed): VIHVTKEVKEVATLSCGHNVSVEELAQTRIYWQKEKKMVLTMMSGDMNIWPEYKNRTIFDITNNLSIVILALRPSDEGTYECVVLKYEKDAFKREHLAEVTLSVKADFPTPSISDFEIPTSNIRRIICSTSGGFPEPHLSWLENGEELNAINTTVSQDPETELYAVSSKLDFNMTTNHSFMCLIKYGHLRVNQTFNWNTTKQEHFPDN
Test: CD28/B7-1 ELISA (B7-1/CD28 binding inhibition)
Conditions: CD28-Fc coated wells, B7-1-Fc-biotin/streptavidin-alkaline phosphatase detection complex, 1% DMSO
Experimental: Evaluation of B7-1/CD28 Binding Inhibition for Test Compounds
Wells are coated with 300 ng CD28-Fc in carbonate buffer (pH 9.4) overnight at 4° C., blocked with 1% bovine serum albumin in tris-buffered saline (TBS) for 1 h at 22° C. and washed 3 times in TBS prior to assay. The detection complex is formed as follows: B7-1-Fc-biotin, prepared using NHS-LC-biotin (Pierce #21335) according to the manufacturers instructions (4.1 moles biotin/mole Fc), is added at 0.8 ug/ml to streptavidin-alkaline phosphatase (Caltag Sa1008 at 1:1000 in TBS. Gradient dilutions of test compound in dimethylsulfoxide (1% final) are added to this complex and incubated 30 min. at 22° C. Detection complex (+/−inhibitors) is then added to the CD28 coated wells for 25 min. at 22° C., washed 5 times with TBS, developed with the calorimetric substrate pNPP (Pierce #34045) in diethanolamine/MgCl2 buffer (pH 9.5) and read at 405 nm. The inhibition constant (IC50) is calculated by subtracting background binding and comparing to uninhibited (DMSO alone) controls. The inhibition constant represents the concentration of test compound required to achieve 50% inhibition.

SMILES | IC50
CCOC(=O)c1scc(C)c1-n1[nH]c2c(c(-c3cccc(C(F)(F)F)c3)nc3c2cnn3C)c1=O [Example 51] | 2100 nM
Cn1ncc2c3[nH]n(-c4ccc(Cl)c(C(=O)O)c4)c(=O)c3c(-c3cccc(C(F)(F)F)c3)nc21 [Example 25] | 7 nM
Cn1ncc2c3[nH]n(-c4ccc(=O)[nH]n4)c(=O)c3c(-c3cccc(C(F)(F)F)c3)nc21 [Example 24] | 72 nM
O=c1c2c(-c3cccc(C(F)(F)F)c3)nc3c(cnn3-c3ccccc3)c2[nH]n1-c1cccc(F)c1 [Example 7] | 750 nM
Cn1ncc2c3[nH]n(-c4cccc(F)c4)c(=O)c3c(-c3cccc(C(N)=O)c3)nc21 [Example 54] | 1500 nM
COC(=O)c1cc(-n2[nH]c3c(c(-c4cccc(C(F)(F)F)c4)nc4c3cnn4C)c2=O)ccc1Cl [Example 26] | 120 nM
Cn1ncc2c3[nH]n(-c4cccc(C(=O)O)c4)c(=O)c3c(-c3cccc(C(F)(F)F)c3)nc21 [Example 21] | 48 nM
O=c1c2c(-c3cccc(C(F)(F)F)c3)nc3c(cnn3Cc3ccccc3)c2[nH]n1-c1ccc(F)cc1 [Example 64] | 70 nM
Cc1cc(-n2[nH]c3c(c(-c4cccc(Br)c4)nc4c3cnn4C)c2=O)cc(C(F)(F)F)c1 [Example 12] | 190 nM
Cn1ncc2c3[nH]n(-c4ccc([N+](=O)[O-])cc4)c(=O)c3c(-c3cccc(Br)c3)nc21 [Example 18] | 12 nM
Cc1cc(C)cc(-n2[nH]c3c(c(-c4cccc(Br)c4)nc4c3cnn4C)c2=O)c1 [Example 17] | 58 nM
Cn1ncc2c3[nH]n(-c4ccc(F)cc4)c(=O)c3c(-c3cccc(C(F)(F)F)c3)nc21 [Example 39] | 50 nM
Cn1ncc2c3[nH]n(-c4cccc(F)c4)c(=O)c3c(-c3cc(Cl)cc(Cl)c3)nc21 [Example 73, 4-(3,5-Dichlorophenyl)-2-(3-fluorophenyl)-6-methyl-1,6-dihydrodypyrazolo[3,4-b:3′,4′-d]pyridin-3(2H)-one] | 40 nM
CCCn1ncc2c3[nH]n(-c4ccc(F)cc4)c(=O)c3c(-c3cccc(C(F)(F)F)c3)nc21 [Example 68] | 90 nM
COC(=O)c1ccc(-n2[nH]c3c(c(-c4cccc(C(F)(F)F)c4)nc4c3cnn4C)c2=O)cc1Cl [Example 29] | 41 nM
Cn1ncc2c3[nH]n(-c4ccc(C(=O)O)c(Cl)c4)c(=O)c3c(-c3cccc(Br)c3)nc21 [Example 32] | 9 nM
Cn1ncc2c3[nH]n(-c4ccc(I)cc4)c(=O)c3c(-c3cccc(C(F)(F)F)c3)nc21 [Example 16] | 50 nM
Cn1ncc2c3[nH]n(-c4cccc(F)c4)c(=O)c3c(-c3cncc(Br)c3)nc21 [Example 4, 4-(5-Bromo-3-pyridinyl)-2-(3-fluorophenyl)-6-methyl-1,6-dihydrodipyrazalo[3,4-b:3,4-d]pyridin-3(2H)-one] | 20 nM
Cc1cccc(-c2nc3c(cnn3C)c3[nH]n(-c4cc(C)cc(C)c4)c(=O)c23)c1 [Example 19] | 990 nM
Cn1ncc2c3[nH]n(-c4ccc(F)cc4)c(=O)c3c(-c3cccc(N)c3)nc21 [Example 47] | 400 nM
Cc1csc(C(=O)O)c1-n1[nH]c2c(c(-c3cccc(C(F)(F)F)c3)nc3c2cnn3C)c1=O [Example 52] | 1700 nM

SMILES | IC50
Cn1ncc2c3[nH]n(-c4ccccn4)c(=O)c3c(-c3cncc(Br)c3)nc21 [Example 9] | 400 nM
COC(=O)c1cccc(-n2[nH]c3c(c(-c4cccc(C(F)(F)F)c4)nc4c3cnn4C)c2=O)c1 [Example 22] | 8 nM
Cn1ncc2c3[nH]n(-c4ccc(Cl)cc4)c(=O)c3c(-c3ccccc3)nc21 [Example 6] | 1800 nM
Cn1ncc2c3[nH]n(-c4ccccc4F)c(=O)c3c(-c3cccc(C(F)(F)F)c3)nc21 [Example 41] | 400 nM
COC(=O)c1ccc(-n2[nH]c3c(c(-c4cccc(C(F)(F)F)c4)nc4c3cnn4C)c2=O)cc1 [Example 34] | 31 nM
Cn1ncc2c3[nH]n(-c4cccc(F)c4)c(=O)c3c(-c3cccc(C(=O)O)c3)nc21 [Example 60] | 70 nM
Cn1ncc2c3[nH]n(-c4cccc(F)c4)c(=O)c3c(-c3cccc([N+](=O)[O-])c3)nc21 [Example 50] | 4 nM
COC(=O)c1ccc(-n2[nH]c3c(c(-c4cccc(Br)c4)nc4c3cnn4C)c2=O)cc1Cl [Example 31] | 9 nM
Cn1ncc2c3[nH]n(-c4ccc(F)cc4F)c(=O)c3c(-c3cccc(C(F)(F)F)c3)nc21 [Example 44] | 1000 nM
Cn1ncc2c3[nH]n(-c4ccc(F)cc4)c(=O)c3c(-c3cccc([N+](=O)[O-])c3)nc21 [Example 46] | 50 nM
COC(=O)c1cc(-n2[nH]c3c(c(-c4cccc(C(F)(F)F)c4)nc4c3cnn4C)c2=O)ccc1F [Example 35] | 98 nM
CCOC(=O)c1cccc(-n2[nH]c3c(c(-c4cccc(C(F)(F)F)c4)nc4c3cnn4C)c2=O)c1 [Example 28] | 170 nM
COC(=O)c1ccc(-n2[nH]c3c(c(-c4cccc(C(F)(F)F)c4)nc4c3cnn4C)c2=O)cc1F [Example 37] | 12 nM
Cc1cccc(-c2nc3c(cnn3C)c3[nH]n(-c4ccccn4)c(=O)c23)c1 [Example 10] | 150 nM
CC1CN(c2nc3c(cnn3C)c3[nH]n(-c4cccc(F)c4)c(=O)c23)CC(C)O1 (stereo not shown) [Example 81, 4-(2,6-Dimethyl-4-morpholinyl)-2-(3-fluorophenyl)-6-methyl-1,6-dihydrodipyrazolo[3,4-b:3′-4′-d]pyridin-3(2H)-one] | 188 nM
Cn1ncc2c3[nH]n(-c4ccc(C(=O)O)cc4)c(=O)c3c(-c3cccc(C(F)(F)F)c3)nc21 [Example 33] | 190 nM
Cn1ncc2c3[nH]n(-c4cccc(F)c4)c(=O)c3c(-c3ccc4c(c3)OCO4)nc21 [Example 76] | 295 nM
CCn1ncc2c3[nH]n(-c4ccc(F)cc4)c(=O)c3c(-c3cccc(C(F)(F)F)c3)nc21 [Example 67] | 780 nM
Cn1ncc2c3[nH]n(-c4ccc(F)c(C(=O)O)c4)c(=O)c3c(-c3cccc(C(F)(F)F)c3)nc21 [Example 36] | 70 nM
Cn1ncc2c3[nH]n(-c4ccc(C(=O)O)c(Cl)c4)c(=O)c3c(-c3cccc(C(F)(F)F)c3)nc21 [Example 30] | 16 nM
Cn1ncc2c3[nH]n(-c4ccc(OCc5ccccc5)cc4)c(=O)c3c(-c3cccc(C(F)(F)F)c3)nc21 [Example 58] | 25 nM

SMILES | IC50
O=c1c2c(-c3cccc(C(F)(F)F)c3)nc3[nH]ncc3c2[nH]n1-c1ccc(F)cc1 [Example 65] | 50 nM
CCOc1ccc(-n2[nH]c3c(c(-c4cccc(C(F)(F)F)c4)nc4c3cnn4C)c2=O)nn1 [Example 23] | 290 nM
Cn1ncc2c3[nH]n(-c4ccc(-c5ccccc5)cc4)c(=O)c3c(-c3cccc(C(F)(F)F)c3)nc21 [Example 57] | 39 nM
Cn1ncc2c3[nH]n(-c4ccc([N+](=O)[O-])cc4)c(=O)c3c(-c3cccc(C(F)(F)F)c3)nc21 [Example 40] | 100 nM
Cn1ncc2c3[nH]n(-c4ccc(C(=O)O)c(F)c4)c(=O)c3c(-c3cccc(C(F)(F)F)c3)nc21 [Example 38] | 210 nM
Cn1ncc2c3[nH]n(-c4cccc(F)c4)c(=O)c3c(-c3ccsc3)nc21 [Example 74] | 105 nM
Cn1ncc2c3[nH]n(-c4ccccn4)c(=O)c3c(-c3cccc(Br)c3)nc21 [Example 13] | 70 nM
Cc1cc(C)cc(-n2[nH]c3c(c(-c4cccc(C(F)(F)F)c4)nc4c3cnn4C)c2=O)c1 [Example 20] | 66 nM
Cn1ncc2c3[nH]n(-c4cccc(F)c4)c(=O)c3c(-c3cccc(C(F)(F)F)c3)nc21 [Example 43] | 20 nM
Cn1ncc2c3[nH]n(-c4cccc(F)c4)c(=O)c3c(-c3cccc(C#N)c3)nc21 [Example 53] | 30 nM
COc1cccc(-c2nc3c(cnn3C)c3[nH]n(-c4cccc(F)c4)c(=O)c23)c1 [Example 75] | 82 nM
Cn1ncc2c3[nH]n(-c4cccc(F)c4)c(=O)c3c(-c3cccc(S(C)(=O)=O)c3)nc21 [Example 55] | 1900 nM
Cn1ncc2c3[nH]n(-c4ccc(N)cc4)c(=O)c3c(-c3cccc(C(F)(F)F)c3)nc21 [Example 48] | 50 nM
Cn1ncc2c3[nH]n(-c4cccc(OCc5ccccc5)c4)c(=O)c3c(-c3cccc(C(F)(F)F)c3)nc21 [Example 59] | 20 nM
Cn1ncc2c3[nH]n(-c4cccc(F)c4)c(=O)c3c(-c3cccc([S+](C)[O-])c3)nc21 (stereo not shown) [Example 56] | 330 nM
Cn1ncc2c3[nH]n(-c4nccc(C(F)(F)F)n4)c(=O)c3c(-c3cccc(C(F)(F)F)c3)nc21 [Example 45] | 1200 nM
Cn1ncc2c3[nH]n(-c4ccc(F)cc4)c(=O)c3c(-c3cncc(Br)c3)nc21 [Example 8] | 200 nM
Cn1ncc2c3[nH]n(-c4ccc(C(C)(C)C)cc4)c(=O)c3c(-c3cccc(C(F)(F)F)c3)nc21 [Example 42] | 900 nM
O=c1c2c(-c3cccc(C(F)(F)F)c3)nc3c(cnn3CCO)c2[nH]n1-c1ccc(F)cc1 [Example 66] | 800 nM
